# PubChem BioAssay AID743026 (Vanderbilt Specialized Chemistry Center, 2013)
# The source made the active and inactive calls.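 The calls were made as follows: active = IC50 under 10 µM against human M5, lowering the acetylcholine-driven calcium signal; inactive = the rest.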
# Target: Muscarinic acetylcholine receptor M5 (Homo sapiens) (UniProt P08912)
# Assay: potency of M5 ACh response inhibition – cell-based, concentration-response curves, human M5, dose response (AID 743026)
# Conditions: CHO-K1 hM5, ACh EC80 calcium flux, Fluo-4
# Sequence of Muscarinic acetylcholine receptor M5 (Homo sapiens) (P08912 whole entry, looked up): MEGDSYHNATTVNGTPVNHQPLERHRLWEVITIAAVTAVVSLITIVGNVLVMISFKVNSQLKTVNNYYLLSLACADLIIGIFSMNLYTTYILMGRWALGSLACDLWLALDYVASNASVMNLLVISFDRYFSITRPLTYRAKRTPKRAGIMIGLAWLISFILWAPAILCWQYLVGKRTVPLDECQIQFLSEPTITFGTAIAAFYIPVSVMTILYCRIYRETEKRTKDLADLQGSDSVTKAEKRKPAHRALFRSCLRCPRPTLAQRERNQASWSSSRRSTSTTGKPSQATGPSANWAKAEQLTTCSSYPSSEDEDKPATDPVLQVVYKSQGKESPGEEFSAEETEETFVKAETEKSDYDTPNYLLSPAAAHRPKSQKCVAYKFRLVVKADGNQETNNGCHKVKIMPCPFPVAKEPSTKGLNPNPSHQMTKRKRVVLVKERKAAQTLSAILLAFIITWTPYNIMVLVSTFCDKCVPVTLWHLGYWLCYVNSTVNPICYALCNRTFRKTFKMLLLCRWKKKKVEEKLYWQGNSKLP
row,IC50,Structure (SMILES)
1,8.06 µM,COc1ccc(C23c4ccccc4C(=O)N2CCN3C(=O)c2ccc(SC(F)(F)F)cc2)cc1 (centres undefined)
2,2.36 µM,O=C(c1ccc(OC(F)(F)F)cc1)N1CCN2C(=O)c3ccccc3C12c1ccc(Cl)cc1 (centres undefined)
3,4.16 µM,Cc1ccc(C(=O)N2CCN3C(=O)c4ccccc4C23c2ccc(Cl)cc2)cc1 (centres undefined)
4,1.29 µM,O=C(c1ccc(SC(F)(F)F)cc1)N1CCN2C(=O)c3ccccc3C12c1ccc(F)cc1 (centres undefined)
5,3.43 µM,O=C(c1ccc(F)cc1)N1CCN2C(=O)c3ccccc3C12c1ccccc1 (centres undefined)
6,0.79 µM,CC(C)Oc1ccc(C(=O)N2CCN3C(=O)c4ccccc4C23c2ccc(Cl)cc2)cc1 (centres undefined)
7,2.09 µM,O=C(c1cccc(C(F)(F)F)c1)N1CCN2C(=O)c3ccccc3C12c1ccc(F)cc1 (centres undefined)
8,6.58 µM,COc1cccc(C(=O)N2CCN3C(=O)c4ccccc4C23c2ccc(Cl)cc2)c1 (centres undefined)
9,3 µM,O=C(c1cccc(C(F)(F)F)c1)N1CCN2C(=O)c3ccccc3C12c1ccccc1 (centres undefined)
10,2.62 µM,Cc1ccc(C23c4ccccc4C(=O)N2CCN3C(=O)c2ccc(F)c(F)c2)cc1 (centres undefined)
11,1.63 µM,O=C(c1ccccc1)N1CCN2C(=O)c3ccccc3C12c1ccc(Cl)cc1 (centres undefined)
12,1.51 µM,CSc1ccc(C23c4ccccc4C(=O)N2CCN3C(=O)c2ccc(F)c(F)c2)cc1 (centres undefined)
13,1.95 µM,O=C(c1ccc(C(F)(F)F)cc1)N1CCN2C(=O)c3ccccc3C12c1ccccc1 (centres undefined)
14,3.47 µM,Cc1ccc(C23c4ccccc4C(=O)N2CCN3C(=O)c2ccc(OC(F)(F)F)cc2)cc1 (centres undefined)
15,4.9 µM,O=C(c1ccc(OC(F)F)cc1)N1CCN2C(=O)c3ccccc3C12c1ccc(Cl)cc1 (centres undefined)
16,5.81 µM,O=C(c1cc(Cl)cc(Cl)c1)N1CCN2C(=O)c3ccccc3C12c1ccccc1 (centres undefined)
17,4.91 µM,O=C(c1cccc(C(F)(F)F)c1)N1CCN2C(=O)c3ccccc3C12c1ccc(Cl)cc1 (centres undefined)
18,1.07 µM,O=C(c1cc(F)cc(F)c1)N1CCN2C(=O)c3ccccc3C12c1ccc(Cl)cc1 (centres undefined)
19,8.93 µM,C=CCOc1ccc(C23c4ccccc4C(=O)N2CCN3C(=O)c2ccc(F)c(F)c2)cc1 (centres undefined)
20,2.34 µM,Cc1ccc(C23c4ccccc4C(=O)N2CCN3C(=O)c2cc(F)cc(F)c2)cc1 (centres undefined)
21,1.26 µM,COc1ccc(C23c4ccccc4C(=O)N2CCN3C(=O)c2ccc(F)c(F)c2)cc1 (centres undefined)
22,1.39 µM,O=C(c1ccc(SC(F)(F)F)cc1)N1CCN2C(=O)c3ccccc3C12c1ccccc1 (centres undefined)
23,2.07 µM,O=C(c1ccc(C(F)(F)F)cc1)N1CCN2C(=O)c3ccccc3C12c1ccc(Cl)cc1 (centres undefined)
24,2.12 µM,O=C(c1ccc2c(c1)OCO2)N1CCN2C(=O)c3ccccc3C12c1ccc(Cl)cc1 (centres undefined)
25,4.04 µM,Cc1ccc(C23c4ccccc4C(=O)N2CCN3C(=O)c2ccc(SC(F)(F)F)cc2)cc1 (centres undefined)
26,1.02 µM,O=C(c1ccc(F)c(F)c1)N1CCN2C(=O)c3ccccc3C12c1ccccc1 (centres undefined)
27,3.84 µM,O=C(c1cc(F)cc(F)c1)N1CCN2C(=O)c3ccccc3C12c1ccccc1 (centres undefined)
28,4.51 µM,O=C(c1ccc(OC(F)(F)F)cc1)N1CCN2C(=O)c3ccccc3C12c1ccccc1 (centres undefined)
29,6.74 µM,COc1ccc(C23c4ccccc4C(=O)N2CCN3C(=O)c2ccc(OC(F)(F)F)cc2)cc1 (centres undefined)
30,3.1 µM,O=C(c1ccc(SC(F)(F)F)cc1)N1CCN2C(=O)c3ccccc3C12c1ccc(Cl)cc1 (centres undefined)

# Same assay, conditions: CHO-K1 hM5, ACh EC80 calcium flux, Fluo-4; at 30 µM (top of the series)
row,% of max ACh response,Structure (SMILES)
1,inactive,O=C(c1ccc(F)c(F)c1)N1CCCC1(c1ccccc1)c1ccc(Cl)cc1 (centres undefined)
2,inactive,O=C(c1ccc(F)cc1)N1CCN2C(=O)c3ccccc3C12c1ccc(Cl)cc1 (centres undefined)
3,inactive,C[C@H]1CN(C(=O)c2ccc(F)c(F)c2)[C@]2(c3ccc(Cl)cc3)c3ccccc3C(=O)N12
4,inactive,O=C1c2ccccc2C2(c3ccccc3)NCCN12 (centres undefined)
5,inactive,C[C@H]1CN[C@]2(c3ccc(Cl)cc3)c3ccccc3C(=O)N12
6,inactive,O=C(c1ccc(F)cc1)N1CCN2C(=O)c3ncccc3C12c1ccccc1 (centres undefined)
7,inactive,O=C(c1ccc(F)c(F)c1)N1CCN2C(=O)c3ncccc3C12c1ccccc1 (centres undefined)
8,inactive,O=C1CCC2(c3ccccc3)N1CCN2C(=O)c1ccc(F)cc1 (centres undefined)

row,Structure (SMILES),% of max ACh response
1,O=C1c2ncccc2C2(c3ccccc3)NCCN12 (centres undefined),inactive
